Measured values: EP4772520A1, “NOVEL PRODRUG-TYPE ANTICANCER AGENT TARGETING CANCER-SPECIFIC ENZYME ACTIVITY” (priority 2023, dated 2025)
“Also recorded” adds a separate entry of the source.

How the values were obtained:
[1] = tested on: lung squamous carcinomas cell H226; assay: Tumor proliferation suppression test in H226 subcutaneous tumor model; type: in vivo, mice; conditions: 200 mg/kg i.v. 3 times a week for 2 weeks, n = 5, vs Vehicle
Experimental: 200 mg/kg of SN38-βGlcNAc was intravenously administered 3 times a week for 2 weeks to subcutaneous tumor model mice of lung squamous carcinomas cell H226, and the tumor proliferation suppression effect was evaluated. The Vehicle (DMSO administration) group and the SN38-βGlcNAc administration group were n = 5, respectively.
The drug SN38-βGlcNAc was prepared by dissolving a 200 mM of DMSO stock in PBS, and was intravenously administered from the tail vein 3 times a week for 2 weeks at a dose of 200 mg/kg with a total amount of 100 µL. • (3) The body weight was measured on the day of evaluation, and the tumor volume was evaluated with a vernier caliper. • (4) Tumors were resected on day 19 from the start of dosing and their sizes were compared.

[2] = tested on: primary lung squamous cell carcinoma PDX tumor (DLUN013/F_PDX_000162); assay: Tumor proliferation suppression test in PDX model mice; type: in vivo; conditions: 200 mg/kg i.v., 6 times over 2 weeks
Experimental: With respect to SN38-βGlcNAc showing high sensitivity by the organoid test, an in vivo tumor proliferation suppression test was performed using a primary lung squamous cell carcinoma PDX tumor (DLUN013/F_PDX_000162) established at Fukushima Medical University Medical and Industrial TR Center from the same patient. 200 mg/kg of SN38-βGlcNAc was intravenously administered to PDX subcutaneous tumor model mice a total of 6 times over 2 weeks as shown in the administration schedule (a of Fig. 30), and the tumor proliferation suppression effect was evaluated. The Vehicle (DMSO administration) group and the SN38-βGlcNAc administration group were n = 6, respectively.
A specific procedure of the therapeutic experiment is shown below. • (1) The tube containing the frozen tumor tissue was thawed in a thermostatic water bath at 37°C. […] The SN38-βGlcNAc was prepared by dissolving a 400 mM of DMSO stock in PBS, and was intravenously administered from the tail vein 3 times a week for 2 weeks at a dose of 200 mg/kg with a total amount of 100 µL. • (5) The tumor volume and body weight were measured on the day of evaluation. • (6) The tumor was removed, and then subjected to fluorescence imaging using HMRef-βGlcNAc (50 µM, PBS solution) in the presence and absence of PUGNAc (500 µM), which is an inhibitor of β-hexosaminidase.

[3] = biological target: T1, Human β-Galactosidase 1 (GLB1) (Homo sapiens, UniProt P16278); assay: Evaluation of drug release using LC-MS; type: biochemical; conditions: GLB1 purified enzyme added
T1 sequence (P16278 29-677): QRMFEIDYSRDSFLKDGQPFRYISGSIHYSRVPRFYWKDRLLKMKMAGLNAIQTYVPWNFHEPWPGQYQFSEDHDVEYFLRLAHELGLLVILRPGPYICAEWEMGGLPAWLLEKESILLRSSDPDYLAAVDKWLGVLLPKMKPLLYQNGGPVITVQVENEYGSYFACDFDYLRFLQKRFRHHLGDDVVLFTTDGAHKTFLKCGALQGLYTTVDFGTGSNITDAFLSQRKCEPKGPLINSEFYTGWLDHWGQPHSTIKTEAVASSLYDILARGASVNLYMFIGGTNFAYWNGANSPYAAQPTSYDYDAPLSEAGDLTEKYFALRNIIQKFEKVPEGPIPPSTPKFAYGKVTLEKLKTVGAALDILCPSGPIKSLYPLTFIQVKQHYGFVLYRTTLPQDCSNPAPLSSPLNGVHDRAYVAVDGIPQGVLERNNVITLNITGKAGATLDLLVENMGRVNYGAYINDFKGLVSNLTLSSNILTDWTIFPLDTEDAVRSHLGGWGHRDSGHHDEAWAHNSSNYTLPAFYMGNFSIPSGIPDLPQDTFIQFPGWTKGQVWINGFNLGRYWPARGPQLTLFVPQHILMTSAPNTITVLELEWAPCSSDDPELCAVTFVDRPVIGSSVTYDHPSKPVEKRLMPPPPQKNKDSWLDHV
Source text: Reactivity with Human β-Galactosidase 1 (GLB1), which is an assumed target enzyme of SN38-βGal, was confirmed using LC-MS.

[4] = tested on: luciferase-expressing SKOV3 cells; assay: Therapeutic experiment of SN38-βGal in SKOV3 ovarian cancer peritoneal dissemination model; type: in vivo, mice; conditions: for body weight: 20 mg/kg i.p. 5 times a week; for tumor proliferation suppression effect: 20 mg/kg i.p. 5 times a week over 4 weeks and 3 days, vs Vehicle, 20 mg/kg
Experimental: Next, the therapeutic effect of SN38-βGal in the ovarian cancer peritoneal dissemination model was verified. Vehicle (DMSO) group (n = 5), SN38-βGal, and 20 mg/kg (n = 4) were set, and 20 mg/kg was intraperitoneally administered 5 times a week (2 days off) over 4 weeks and 3 days.
A specific procedure of the therapeutic experiment is shown below. • (1) 1.5 × 10^6 luciferase-expressing SKOV3 cells were intraperitoneally administered to BALB/cAJcl-nu/nu (7 weeks old). • (2) After one week, the formation of cancer was confirmed by luciferin/luciferase chemiluminescence. • (3) Intraperitoneal administration of the drug was started in a cycle in which the drug was administered to the mice in which formation of cancer was confirmed for five consecutive days within 1 week and the drug was withdrawn for 2 days. The drug was prepared by dissolving a 100 mM of DMSO stock in PBS, and administered in a total amount of 100 µL. • (4) On the evaluation day, 3 mg of luciferin potassium dissolved in 200 µL of PBS was intraperitoneally administered, and anesthetized with isoflurane, and then the luminescence value 15 minutes after the administration was measured with an in vivo imaging device. At the same time, the body weight was measured.
According to the same protocol as that of the first therapeutic experiment, Vehicle (DMSO) group (n = 5), SN38-βGal, and 20 mg/kg (n = 4) were set, and 20 mg/kg was intraperitoneally administered 5 times a week (2 days off) over 4 weeks and 3 days.

SMILES | tumor proliferation suppression effect (tumor volume) [1] | body weight change [2] | tumor proliferation suppression effect (tumor volume) ([2]; n = 6, vs Vehicle) | release of SN38 [3] | body weight ([4]; first experiment) | tumor proliferation suppression effect ([4]; first experiment) | body weight ([4]; second experiment) | tumor proliferation suppression effect ([4]; second experiment)
CCc1c2c(nc3ccc(O[C@@H]4O[C@H](CO)[C@@H](O)[C@H](O)[C@H]4NC(C)=O)cc13)-c1cc3c(c(=O)n1C2)COC(=O)[C@]3(O)CC [SN38-βGlcNAc] | the tumor growth was almost completely suppressed | No body weight change was observed | the tumor growth was significantly suppressed | – | – | – | – | –
CCc1c2c(nc3ccc(O[C@@H]4O[C@H](CO)[C@H](O)[C@H](O)[C@H]4O)cc13)-c1cc3c(c(=O)n1C2)COC(=O)[C@]3(O)CC [SN38-βGal] | – | – | – | the release of SN38 showing an anticancer effect was confirmed | no significant body weight loss was found | the tumor proliferation suppression effect was suggested again; also recorded: significantly suppressed tumor growth | no significant body weight loss was found | the tumor proliferation suppression effect was confirmed again; also recorded: significantly suppressed tumor growth
